Experimental findings from patent publication US20250136572A1, “PARA ACYL SUBSTITUTED DIAZACYCLOHEXENE DERIVATIVES” (Renovel Innovations, Inc., priority 2021, published 2025) are described below.

Experiment [1] can be described thus: Oral glucose tolerance test in C57BL/6 mice on high fat diet. It is filed as in vivo. Also noted: concentration or dose not given beside the values. The conditions noted are these: for reduction in blood glucose at the peak oral glucose tolerance test of 30 minutes: compared with the control high fat diet group.
Experiment [2] in a line: Body weight in C57BL/6 mice on high fat diet. The settings on record: for decrease in body weight: compared to the high fat diet control group. It is filed as in vivo, male C57BL/6 mice.
Experiment [3] is described as follows: Fasting blood glucose in mice on high fat diet. The class given is in vivo. The conditions noted are these: compared with the control high fat diet group.
In a further experiment the test system is TNF-α. The experiment in a line: TNF-α in LPS-treated mice. It is filed as in vivo. The settings on record: from the LPS group.
The next experiment can be described thus: Blood pressure in rats. It is filed as in vivo. The conditions noted are these: compared to the vehicle group.
Experiment [4] can be described thus: Triglycerides in high fructose fed hamsters. It is filed as in vivo. The settings on record: compared with the high fructose fed group.

`CCOC(=O)C1=C(C)NC(=O)NC1c1ccc(OC(=O)/C=C/c2ccccc2)c(OC)c1` (stereo not shown) [Compound 2, 4-[3-Methoxy-4-(3-phenyl-acryloyloxy)-phenyl]-6-Methyl-2-oxo-1,2,3,4-tetrahydro-pyrimidine-5-carboxylic acid ethyl ester]: in experiment [1], the “reduction in blood glucose at the peak oral glucose tolerance test of 30 minutes” value (“reduction in blood glucose … of 30 minutes” below) turned out to be 8%. Also, the “decrease in body weight” value was determined as 5% in experiment [2] (FIG. 6A, C57BL/6 mice) and 15% in experiment [2] (FIG. 6B, significant (P<0.0001)).

As to `CCOC(=O)C1=C(C)NC(=S)NC1c1ccc(OC(=O)C(C)C)c(OC)c1` (stereo not shown) [Compound 4, 4-(4-Isobutyryloxy-3-methoxy-phenyl)-6-methyl-2-thioxo-1,2,3,4-tetrahydro-pyrimidine-5-carboxylic acid ethyl ester], the “reduction in blood glucose … of 30 minutes” value in experiment [1] came to 33%. Moreover, the “reduction in blood glucose at 120 minutes after glucose administration” value in experiment [1] (120 minutes after glucose administration) is 26%.

`CCOC(=O)C1=C(C)NC(=O)NC1c1ccc(OC(=O)/C=C/c2ccccc2)cc1` (stereo not shown) [Compound 1, 6-Methyl-2-oxo-4-[4-(3-phenyl-acryloyloxy)-phenyl]-1,2,3,4-tetrahydro-pyrimidine-5-carboxylic acid ethyl ester]: the “reduction in blood glucose … of 30 minutes” value in experiment [1] is given as 23%. Moreover, the “decrease in percent change in body weight” value in experiment [2] (FIG. 1B, compared with the control high fat diet group) is on record as 15%. Besides, the “decrease in fasting blood glucose” value in experiment [3] turned out to be 26%. Also, in the experiment on TNF-α, the “decrease of TNF-α” value came to 59%. Moreover, in “Blood pressure in rats”, the “decrease in diastolic blood pressure” value worked out at 8% and the “decrease in systolic blood pressure” value amounted to 4%. The molecule also displayed a decrease in triglycerides in experiment [4] of 31%.

With `CCOC(=O)C1=C(C)NC(=O)NC1c1ccc(OC(=O)C(C)C)c(OC)c1` (stereo not shown) [Compound 3, 4-(4-Isobutyryloxy-3-methoxy-phenyl)-6-methyl-2-oxo-1,2,3,4-tetrahydro-pyrimidine-5-carboxylic acid ethyl ester], in experiment [1], the “reduction in blood glucose … of 30 minutes” value was determined as 6%.
